The text below walks through data of patent EP0925786A1, “REMEDIES FOR ISCHEMIC DISEASES” (MITSUBISHI CHEMICAL CORPORATION, priority 1996, dated 1998).

Data set [1] can be described thus: Formation of active metabolite in blood (rat serum incubation, HPLC). Type of data set: in vitro ADME. As to conditions: final concentration 100 µM, 5 minutes of incubation at 37°C. The protocol: (2S,3S)-2-Acetoxy-3-((S)-4-methyl-2-phenylsulfonylaminovalerylamino)tetrahydrofuran obtained in Inventive Example 2 was dissolved in acetonitrile and added to rat serum to a final concentration of 100 µM. After 5 minutes of incubation at 37°C, this was mixed with acetonitrile and centrifuged and then the thus obtained supernatant fluid was checked by HPLC. It was found as the result that a 97% portion of the thus added (2S,3S)-2-acetoxy-3-((S)-4-methyl-2-phenylsulfonylaminovalerylamino)-tetrahydrofuran was hydrolyzed and converted into its active metabolite (3S)-3-((S)-4-methyl-2-phenylsulfonylaminovalerylamino)-2-tetrahydrofuranol (compound of Inventive Example 1).
HPLC was carried out under the following conditions. • Column: Nucleosil 100 5C18 4.6 x 250 mm (manufactured by Nargel) • Column temperature: 50°C • Mobile phase: CH3CN:H2O:PIC A Low UV (manufactured by Waters) 22:78:1 • Flow rate: 1 ml/min • Detection wave length: UV 222 nm

Data set [2] is described as follows: Formation of active metabolite in blood (human sera, HPLC). It is filed as in vitro ADME. As to conditions: same procedure.
Data set [3] can be described thus: Formation of active metabolite in blood (dog sera, HPLC). It is filed as in vitro ADME. As to conditions: same procedure.
In a further data set the test system is male Wistar rats. Kind of data set: Action to improve passive avoidance response after a short period of fore-brain ischemia. As to conditions: dose of 1 mg/kg, po, 30 minutes before 5 minutes of ischemia loading; retrieval test 48 hours after reperfusion. It is filed as in vivo, rat.
A further data set in a line: in vivo. The settings on record: both sexes, SD, rat, po.
The target in the next data set is T1, m-Calpain (Rattus norvegicus, UniProt Q07009).
T1 construct: m-Calpain was purified from rat brain; from tissue; host or cells: rat brain
T1 sequence (Q07009 20-700 limits assumed): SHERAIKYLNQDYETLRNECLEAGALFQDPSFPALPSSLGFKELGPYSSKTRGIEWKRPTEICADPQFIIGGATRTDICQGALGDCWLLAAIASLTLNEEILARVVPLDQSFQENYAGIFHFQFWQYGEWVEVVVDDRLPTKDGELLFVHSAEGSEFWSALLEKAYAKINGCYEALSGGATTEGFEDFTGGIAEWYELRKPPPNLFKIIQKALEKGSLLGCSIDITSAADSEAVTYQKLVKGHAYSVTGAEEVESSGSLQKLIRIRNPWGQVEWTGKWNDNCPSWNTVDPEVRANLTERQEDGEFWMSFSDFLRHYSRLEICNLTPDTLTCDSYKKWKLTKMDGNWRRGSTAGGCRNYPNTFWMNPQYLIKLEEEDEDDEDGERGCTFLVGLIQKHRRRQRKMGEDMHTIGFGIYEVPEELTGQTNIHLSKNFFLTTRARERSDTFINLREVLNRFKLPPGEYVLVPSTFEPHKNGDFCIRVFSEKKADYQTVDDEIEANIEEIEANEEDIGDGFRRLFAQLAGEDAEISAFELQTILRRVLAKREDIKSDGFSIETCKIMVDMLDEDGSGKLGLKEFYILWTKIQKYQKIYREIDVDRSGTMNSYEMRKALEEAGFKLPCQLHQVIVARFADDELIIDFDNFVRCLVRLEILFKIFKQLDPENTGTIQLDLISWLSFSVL
T1 sequence (Q64537 1-270 partner): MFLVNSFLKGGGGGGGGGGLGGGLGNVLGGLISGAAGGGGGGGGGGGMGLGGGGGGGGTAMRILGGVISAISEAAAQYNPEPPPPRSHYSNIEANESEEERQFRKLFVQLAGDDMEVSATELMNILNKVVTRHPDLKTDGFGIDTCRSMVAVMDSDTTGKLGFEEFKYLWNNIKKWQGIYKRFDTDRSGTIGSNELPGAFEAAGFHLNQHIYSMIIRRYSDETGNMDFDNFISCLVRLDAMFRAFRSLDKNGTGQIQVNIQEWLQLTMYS
Kind of data set: Measurement of inhibitory activity against calpain. It is filed as biochemical. The settings on record: m-Calpain purified from rat brain. As to the method:
m-Calpain was purified from rat brain in accordance with the method described in Journal of Biological Chemistry, vol. 259, p. 3210, 1984, and its inhibitory activity was measured in accordance with the method described in Journal of Biological Chemistry, vol. 259, p. 12489, 1984.

Another data set relates to female SD rats. Kind of data set: Myocardial infarct size-limiting effect in acute myocardial infarction model of rat. Type of data set: in vivo. As to the method: An experiment was performed on female SD rats (14 weeks of age). The rats were lightly anesthetized with ether and a left thoracotomy wag performed. A permanent occlusion was placed around the proximal left coronary artery to produce acute myocardial infarction. Infarct size evaluated in each excised heart at 24 hours after the ligation.
The animals were divided into 2 groups at random, and 10 mg/kg of the compound of Inventive Example 29 (Compound No.. 426 in Table 2) suspended in water with Tween 80 was orally administered in a volume of 1 ml/kg to each animal of one of these groups (drug group) 1 hour before the coronary artery ligation, while the same volume of tap water was administered to the other group (control group). A rat with successful thoracotomy and which survived until 24 hours after the coronary ligation was used as the final evaluation subject. This study was continued until the final number of animals in each group reached 8.
Evaluation of the myocardial infarct size was carried out in the following manner. Each of the excised heart was cut into the slices at 2 mm thick from apex to base, and the sections were stained by incubating them in TTC solution (1%) at 37°C for 20 minutes to confirm necrotic region and non-necrotic region. Thereafter, sectional images of the sections were photographed to carry out image analysis on a computer. The infarction size was expressed as a % value obtained by dividing total area of necrotic area of all sliced sections by total left ventricle area (including septum part and excluding left ventricle cavity).

Where only a bound is given, the exact number is not on record here.

From the text for male Wistar rats: Also, animals treated only with cauterization of vertebral arteries were used as a pseudo-operation group. During ischemia and after reperfusion, body temperature of the animals was maintained by putting them on a heat insulating mat until righting reflex was recovered.
An apparatus composed of a light room (50 x 50 x 50 cm) equipped with a 100 W bulb and a dark room (20 x 14 x 20 cm) was used in the passive avoidance response test. Each of the rats which have been subjected to cauterization of both vertebral arteries 48 hours prior to the test was put into the light room and its latency to enter the dark room was measured to be used as the response latency at the time of acquisition trial. […] When each rat entered the dark room, the guillotine door was closed and the rat was immediately exposed to an electric shock (2.9 mA, 5 seconds) from the floor grid, thus completing the acquisition trial. Subsequently, 5 minutes of ischemia loading (occlusion of both common carotid arteries) was carried out under ether anesthesia, and retrieval test was carried out 48 hours after reperfusion. […] Presence or absence of the action to improve passive avoidance response was judged by comparing response latencies of the acquisition trial and retrieval test. Each drug to be tested was orally administered 30 minutes before the ischemia loading.

On to `CC(=O)O[C@@H]1OCC[C@@H]1NC(=O)[C@H](CC(C)C)NS(=O)(=O)c1ccccc1` [Inventive Example 2, (2S,3S)-2-acetoxy-3-((S)-4-methyl-2-phenylsulfonylaminovalerylamino)tetrahydrofuran], for which the “portion hydrolyzed and converted into its active metabolite” value in data set [1] came out at 97%. Further, the “formation of active metabolite” value in data set [2] and in data set [3] was “the same active metabolite is formed” throughout. In addition, the “action to improve passive avoidance response” value with male Wistar rats is on record as “showed the improving action”. Further, the median lethal dose (LD50) at 7 days in “in vivo” is greater than 2000 mg/kg.

Compound `CCCCCCCCCCCCCCOC(=O)N[C@@H](CC(C)C)C(=O)N[C@H]1CCOC1O` (stereo partly drawn) [Inventive Example 3, (3S)-3-((S)-4-methyl-2-tetradecyloxycarbonylaminovalerylamino)-2-tetrahydrofuranol] showed an IC50 against m-Calpain of 110 nM.

Regarding `CCCCCCCCCCCCCCC(=O)N[C@@H](CC(C)C)C(=O)N[C@H]1CCOC1O` (stereo partly drawn) [Inventive Example 8, (3S)-3-((S)-4-methyl-2-pentadecanoylaminovalerylamino)-2-tetrahydrofuranol], the 50% inhibitory concentration (IC50) against m-Calpain was 110 nM.

Take `CCCCCCCCCCCCCCCC(=O)N[C@@H](CC(C)C)C(=O)N[C@H]1CCOC1O` (stereo partly drawn) [Inventive Example 9, (3S)-3-((S)-2-hexadecanoylamino-4-methylvalerylamino)-2-tetrahydrofuranol]: the IC50 against m-Calpain amounted to 160 nM.

Take `CC(C)C[C@H](NC(=O)c1ccccc1F)C(=O)N[C@H]1CCOC1O` (stereo partly drawn) [Inventive Example 10, (3S)-3-{(S)-2-(2-fluorobenzoylamino)-4-methylvalerylamino}-2-tetrahydrofuranol]: at m-Calpain, 170 nM corresponded to half-maximal inhibition (IC50).

At m-Calpain, `Cc1ccc(C(=O)N[C@@H](CC(C)C)C(=O)N[C@H]2CCOC2O)cc1` (stereo partly drawn) [Inventive Example 12, (3S)-3-{(S)-4-methyl-2-(4-methylbenzoylamino)valerylamino}-2-tetrahydrofuranol] yielded an IC50 of 330 nM.

At m-Calpain, `CCCCCCCCCCCCCCCCS(=O)(=O)N[C@@H](CC(C)C)C(=O)N[C@H]1CCOC1O` (stereo partly drawn) [Inventive Example 13, (3S)-3-((S)-2-hexadecylsufonylamino-4-methylvalerylamino)-2-tetrahydrofuranol] had an IC50 of 420 nM.

Consider `COc1ccc(S(=O)(=O)N[C@@H](CC(C)C)C(=O)N[C@H]2CCOC2O)cc1` (stereo partly drawn) [Inventive Example 17, (3S)-3-{(S)-2-(4-methoxyphenylsulfonylamino)-4-methylvalerylamino}-2-tetrahydrofuranol], for which the IC50 against m-Calpain came to 670 nM.

On to `CC(C)C[C@H](NS(=O)(=O)c1ccc2ccccc2c1)C(=O)N[C@H]1CCOC1O` (stereo partly drawn) [Inventive Example 18, (3S)-3-{(S)-4-methyl-2-(2-naphthylsulfonylamino)valerylamino}-2-tetrahydrofuranol], for which, on m-Calpain, the IC50 was found to be 360 nM.

The compound `CC(C)C[C@H](NS(=O)(=O)c1ccccc1)C(=O)N[C@H]1C(C)COC1O` (stereo partly drawn) [Inventive Example 19, (3S)-4-methyl-3-((S)-4-methyl-2-phenylsulfonylaminovalerylamino)-2-tetrahydrofuranol] had a 50% inhibitory concentration (IC50) at m-Calpain of 2500 nM.

Turning to `CC(=O)O[C@@H]1OCC[C@@H]1NC(=O)[C@H](CC(C)C)NC(=O)c1ccccc1F` [Inventive Example 24, (2S,3S)-2-acetoxy-3-{(S)-2-(2-fluorobenzoylamino)-4-methylvalerylamino}tetrahydrofuran], the “action to improve passive avoidance response” value in the data set with male Wistar rats is “showed the improving action”.

In the data set on female SD rats (10 mg/kg orally 1 hour before coronary artery ligation, 24 hours after ligation, necrotic area / total left ventricle area, control 37.3 ± 3.5%), `CC(=O)O[C@@H]1OCC[C@@H]1NC(=O)[C@H](CC(C)C)NS(=O)(=O)c1c(C)cc(C)cc1C` [Inventive Example 29, (2S,3S)-2-acetoxy-3-{(S)-4-methyl-2-(2,4,6-trimethylphenylsulfonylamino)valerylamino}tetrahydrofuran] returned an infarct size of 25.0 ± 1.7%. Further, in the data set with female SD rats (10 mg/kg orally, based on the control group), the “infarct size reducing ratio” value stood at 33.0%. For the same compound, the “animals died during the thoracotomy” value with female SD rats (drug group 10 mg/kg orally, control group 2) worked out at 3. The “animals died within 24 hours after the operation” value in the data set with female SD rats (drug group 10 mg/kg orally, control group 9) amounted to 10. Further, the median lethal dose (LD50) at 7 days in “in vivo” was greater than 2000 mg/kg.

The LD50 is the dose at which mortality reaches 50%. What is called IC50 is the midpoint of a concentration-inhibition curve.
